Measurements from ChEMBL document CHEMBL1133433, “Synthesis of a novel class of cdc25A inhibitors from vitamin D3” (Bioorg Med Chem Lett, 2000).
pIC50: −log10 of the molar value.

Tests used:
[1] = biological target: T1, M-phase inducer phosphatase 1 (Homo sapiens, UniProt P30304); assay: Concentration required for the inhibitory activity against human Cell division cycle 25A
T1 sequence (P30304 whole entry): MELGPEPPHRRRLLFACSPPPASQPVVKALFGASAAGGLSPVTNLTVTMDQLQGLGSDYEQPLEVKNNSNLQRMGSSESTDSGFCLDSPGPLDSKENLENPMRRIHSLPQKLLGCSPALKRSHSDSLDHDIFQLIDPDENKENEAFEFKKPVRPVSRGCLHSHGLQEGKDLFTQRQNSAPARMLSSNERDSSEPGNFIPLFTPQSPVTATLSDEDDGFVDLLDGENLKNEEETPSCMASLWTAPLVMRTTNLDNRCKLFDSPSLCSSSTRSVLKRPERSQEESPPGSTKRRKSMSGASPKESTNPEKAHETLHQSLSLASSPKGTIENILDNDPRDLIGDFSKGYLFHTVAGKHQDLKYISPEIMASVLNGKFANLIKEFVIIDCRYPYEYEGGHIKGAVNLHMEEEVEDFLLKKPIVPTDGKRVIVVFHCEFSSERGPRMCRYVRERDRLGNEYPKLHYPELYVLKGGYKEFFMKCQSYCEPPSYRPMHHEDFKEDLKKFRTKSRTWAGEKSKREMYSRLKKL

SBC-5 = assay: Inhibitory concentration required for antitumor activity against SBC-5 cells; type: functional, cell-based; details: Homo sapiens

Row | SMILES | pIC50 [1] | pIC50 (SBC-5)
1 | CC(C)CCC[C@@H](C)[C@H]1CCC2/C(=C/C(=O)O)CCC[C@@]21C (some centres not stated) | 5.11 | 4.33
2 | CC(C)CCC[C@@H](C)[C@H]1CCC2C(CCCC(=O)O)CCC[C@@]21C (some centres not stated) | 5.05 | < 4.00
3 | CC(C)CCC[C@@H](C)[C@H]1CCC2C(CC(=O)O)CCC[C@@]21C (some centres not stated) | 4.49 | < 4.00

Next, values leading:

Row | pIC50 [1] | pIC50 (SBC-5) | SMILES
4 | < 3.52 | 4.15 | COC(=O)/C=C1\CCC[C@@]2(C)C1CC[C@@H]2[C@H](C)CCCC(C)C (some centres not stated)
5 | < 3.52 | 4.15 | COC(=O)CC1CCC[C@@]2(C)C1CC[C@@H]2[C@H](C)CCCC(C)C (some centres not stated)
6 | 4.03 | 4.38 | CC(C)CCC[C@@H](C)[C@H]1CCC2/C(=C/C=C/C(=O)O)CCC[C@@]21C (some centres not stated)
